Measured values published in ChEMBL document CHEMBL5038624, “Construction and activity evaluation of novel dual-target (SE/CYP51) anti-fungal agents containing amide naphthyl structure” (Eur J Med Chem, 2022).
≈ marks a conversion by molar mass, not a printed value.

What was measured:
Candida tropicalis = experiment: Antifungal activity against Candida tropicalis ATCC 1369 assessed as reduction in fungal growth incubated for 72 hrs by CLSI protocol based broth microdilution method; assay type: functional
Pichia kudriavzevii = experiment: Antifungal activity against Candida krusei ATCC 6258 assessed as reduction in fungal growth incubated for 72 hrs by CLSI protocol based broth microdilution method; assay type: functional
Nakaseomyces glabratus = experiment: Antifungal activity against Candida glabrata ATCC 0001 assessed as reduction in fungal growth incubated for 72 hrs by CLSI protocol based broth microdilution method; assay type: functional
Candida albicans [1] = experiment: Antifungal activity against Candida albicans strain 632 assessed as reduction in fungal growth incubated for 72 hrs by CLSI protocol based broth microdilution method; assay type: functional
Candida albicans [2] = experiment: Inhibition of SE/CYP51 in Candida albicans ATCC SC5314 assessed as lanosterol level incubated for 48 hrs by LC/MS analysis; parameters: scale not given: the % may be the effect or the level left
Candida albicans [3] = experiment: Inhibition of SE/CYP51 in Candida albicans ATCC SC5314 assessed as ergosterol level incubated for 48 hrs by LC/MS analysis; parameters: scale not given: the % may be the effect or the level left
Candida albicans [4] = experiment: Induction of apoptosis against Candida albicans ATCC SC5314 assessed as mild apoptotic cells measured after 48 hrs by Annexin V-FITC/propidium iodide staining based flow cytometry (Rvb =0.29 %); assay type: functional
Candida albicans [5] = experiment: Antifungal activity against Candida albicans SC5314 assessed as reduction in fungal growth incubated for 72 hrs by CLSI protocol based broth microdilution method; assay type: functional
Candida albicans [6] = experiment: Antifungal activity against Candida albicans strain 17 assessed as reduction in fungal growth incubated for 72 hrs by CLSI protocol based broth microdilution method; assay type: functional
Candida albicans [7] = experiment: Antifungal activity against Candida albicans strain CaR assessed as reduction in fungal growth incubated for 72 hrs by CLSI protocol based broth microdilution method; assay type: functional
Aspergillus fumigatus = experiment: Antifungal activity against Aspergillus fumigatus KM8001 assessed as reduction in fungal growth incubated for 72 hrs by CLSI protocol based broth microdilution method; assay type: functional
Candida albicans [8] = experiment: Antifungal activity against Candida albicans strain 901 assessed as reduction in fungal growth incubated for 72 hrs by CLSI protocol based broth microdilution method; assay type: functional
Candida albicans [9] = experiment: Inhibition of SE/CYP51 in Candida albicans ATCC SC5314 assessed as unknown sterol level incubated for 48 hrs by LC/MS analysis; parameters: scale not given: the % may be the effect or the level left
Candida albicans [10] = experiment: Induction of apoptosis against Candida albicans ATCC SC5314 assessed as viable cells measured after 48 hrs by Annexin V-FITC/propidium iodide staining based flow cytometry (reference value: 80.78 %); assay type: functional
Candida albicans [11] = experiment: Inhibition of SE/CYP51 in Candida albicans ATCC SC5314 assessed as eburicol level incubated for 48 hrs by LC/MS analysis; parameters: scale not given: the % may be the effect or the level left
Candida albicans [12] = experiment: Antifungal activity against Candida albicans strain 904 assessed as reduction in fungal growth incubated for 72 hrs by CLSI protocol based broth microdilution method; assay type: functional
Candida albicans [13] = experiment: Induction of apoptosis against Candida albicans ATCC SC5314 assessed as necrotic cells measured after 48 hrs by Annexin V-FITC/propidium iodide staining based flow cytometry (reference value: 18.22 %); assay type: functional
[14] = target: Lanosterol 14-alpha demethylase (Candida albicans (strain SC5314 / ATCC MYA-2876) (Yeast), UniProt P10613); experiment: Inhibition of CYP51 in Candida albicans ATCC SC5314 measured after 30 mins by HPLC analysis
Chain of Lanosterol 14-alpha demethylase (P10613 whole entry): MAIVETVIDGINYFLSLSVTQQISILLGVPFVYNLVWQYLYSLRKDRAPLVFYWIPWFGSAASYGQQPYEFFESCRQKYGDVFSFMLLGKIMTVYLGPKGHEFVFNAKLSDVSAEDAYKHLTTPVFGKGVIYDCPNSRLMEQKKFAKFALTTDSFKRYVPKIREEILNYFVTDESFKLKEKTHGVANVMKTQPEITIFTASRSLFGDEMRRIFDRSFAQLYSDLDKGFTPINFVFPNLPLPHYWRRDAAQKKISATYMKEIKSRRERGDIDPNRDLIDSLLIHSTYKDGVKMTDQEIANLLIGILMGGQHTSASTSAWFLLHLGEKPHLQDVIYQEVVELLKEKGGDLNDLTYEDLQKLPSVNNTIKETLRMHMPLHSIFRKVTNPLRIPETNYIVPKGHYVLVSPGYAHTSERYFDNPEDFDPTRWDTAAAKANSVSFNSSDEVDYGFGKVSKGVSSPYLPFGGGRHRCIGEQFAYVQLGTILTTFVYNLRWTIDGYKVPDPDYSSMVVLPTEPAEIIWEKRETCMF

Candida albicans [15] = experiment: Inhibition of SE/CYP51 in Candida albicans ATCC SC5314 assessed as squalene level incubated for 48 hrs by LC/MS analysis; parameters: scale not given: the % may be the effect or the level left
Candida albicans [16] = experiment: Induction of apoptosis against Candida albicans ATCC SC5314 assessed as late apoptotic cells measured after 48 hrs by Annexin V-FITC/propidium iodide staining based flow cytometry (reference value: 0.71 %); assay type: functional

| SMILES | MIC50 (Candida tropicalis) [µg/mL] | MIC50 (Pichia kudriavzevii) [µg/mL] | MIC50 (Nakaseomyces glabratus) [µg/mL] | MIC50 (Candida albicans [5]) [µg/mL] | MIC50 (Aspergillus fumigatus) [µg/mL] | other results |
| --- | --- | --- | --- | --- | --- | --- |
| OC(Cn1cncn1)(Cn1cncn1)c1ccc(F)cc1F [FLUCONAZOLE] | 0.5 (≈ 1.63 µM) | 0.5 (≈ 1.63 µM) | 0.5 (≈ 1.63 µM) | 0.25 (≈ 0.816 µM) | > 8 | MIC50 (Candida albicans [1]): > 8 µg/mL; Activity (Candida albicans [2]): 23.6%; Activity (Candida albicans [3]): 26.5%; Activity (Candida albicans [4]): 0.22%; MIC50 (Candida albicans [6]): > 8 µg/mL; MIC50 (Candida albicans [7]): > 8 µg/mL; MIC50 (Candida albicans [8]): > 8 µg/mL; Activity (Candida albicans [9]): 6.6%; Activity (Candida albicans [10]): 74.25%; Activity (Candida albicans [11]): 41.5%; MIC50 (Candida albicans [12]): > 8 µg/mL; Activity (Candida albicans [13]): 24.61%; IC50 [14]: 0.134 µM; Activity (Candida albicans [15]): 1.8%; Activity (Candida albicans [16]): 0.92% |
| O=C(/C=C/c1ccc2ccccc2c1)NC(Cn1ccnc1)c1ccccc1 (stereo not drawn) | 0.5 (≈ 1.36 µM) | 1 (≈ 2.72 µM) | 0.5 (≈ 1.36 µM) | 0.5 (≈ 1.36 µM) | 4 (≈ 10.9 µM) |  |
| O=C(NC(Cn1ccnc1)C(=O)c1ccccc1)c1ccc2ccccc2c1 (stereo not drawn) | 0.5 (≈ 1.35 µM) | 0.5 (≈ 1.35 µM) | 0.25 (≈ 0.677 µM) | 0.125 (≈ 0.338 µM) | > 8 |  |
| O=C(/C=C/c1cccc2ccccc12)NCc1ccccc1 |  |  |  | 8 (≈ 27.8 µM) |  |  |
| O=C(NC(Cn1cncn1)c1ccccc1)c1cccc2ccccc12 (stereo not drawn) | 0.125 (≈ 0.365 µM) | 0.5 (≈ 1.46 µM) | 2 (≈ 5.84 µM) | 0.25 (≈ 0.73 µM) | > 8 |  |
| O=C(/C=C/c1cccc2ccccc12)NC(C(=O)NCc1cccnc1)c1ccccc1 (stereo not drawn) | 0.5 (≈ 1.19 µM) | 2 (≈ 4.74 µM) | 2 (≈ 4.74 µM) | 4 (≈ 9.49 µM) | > 8 |  |
| O=C(NC(Cn1cncn1)C(=O)c1ccccc1)c1ccc2ccccc2c1 (stereo not drawn) | 0.25 (≈ 0.675 µM) | 1 (≈ 2.7 µM) | 0.5 (≈ 1.35 µM) | 0.25 (≈ 0.675 µM) | 4 (≈ 10.8 µM) |  |
| O=C(/C=C/c1ccc2ccccc2c1)NC(C(=O)Nc1cccnc1)c1ccccc1 (stereo not drawn) | 0.25 (≈ 0.614 µM) | 1 (≈ 2.45 µM) | 0.25 (≈ 0.614 µM) | 0.5 (≈ 1.23 µM) | 4 (≈ 9.82 µM) |  |
| O=C(/C=C/c1cccc2ccccc12)NCC(=O)c1ccccc1 |  |  |  | 8 (≈ 25.4 µM) |  |  |
| O=C(/C=C/c1ccc2ccccc2c1)NC(C(=O)Nc1ccncc1)c1ccccc1 (stereo not drawn) | 0.5 (≈ 1.23 µM) | 0.5 (≈ 1.23 µM) | 0.5 (≈ 1.23 µM) | 0.5 (≈ 1.23 µM) | 2 (≈ 4.91 µM) |  |
| NC(=O)/C=C/c1cccc2ccccc12 |  |  |  | 32 (≈ 162 µM) |  |  |
| O=C(/C=C/c1ccc2ccccc2c1)NC(C(=O)NCc1ccncc1)c1ccccc1 (stereo not drawn) | 1 (≈ 2.37 µM) | 2 (≈ 4.74 µM) | 1 (≈ 2.37 µM) | 1 (≈ 2.37 µM) | > 8 |  |
| O=C(NC(Cn1ccnc1)c1ccccc1)c1cccc2ccccc12 (stereo not drawn) | 0.5 (≈ 1.46 µM) | 1 (≈ 2.93 µM) | 1 (≈ 2.93 µM) | 0.5 (≈ 1.46 µM) | > 8 |  |
| O=C(/C=C/c1cccc2ccccc12)NC(Cn1cncn1)C(=O)c1ccccc1 (stereo not drawn) | 0.125 (≈ 0.315 µM) | 0.5 (≈ 1.26 µM) | 0.25 (≈ 0.631 µM) | 0.25 (≈ 0.631 µM) | 4 (≈ 10.1 µM) |  |
| O=C(/C=C/c1cccc2ccccc12)NC(Cn1ccnc1)c1ccccc1 (stereo not drawn) | 0.25 (≈ 0.68 µM) | 0.125 (≈ 0.34 µM) | 0.5 (≈ 1.36 µM) | 0.125 (≈ 0.34 µM) | 2 (≈ 5.44 µM) | MIC50 (Candida albicans [1]): > 8 µg/mL; MIC50 (Candida albicans [6]): 4 µg/mL (≈ 10.9 µM); MIC50 (Candida albicans [7]): 4 µg/mL (≈ 10.9 µM); MIC50 (Candida albicans [8]): 4 µg/mL (≈ 10.9 µM); MIC50 (Candida albicans [12]): > 8 µg/mL |
